Data on 3 compounds can be found in patent US6596873B1, “2-and 2,5-substituted phenylketoenols” (Bayer Aktiengesellschaft, priority 1996, dated 2003).

Holding throughout (type): in vivo
The test system of experiment [1] is mustard beetle larvae (Phaedon cochleariae). The experiment in a line: Phaedon larvae test. The conditions noted are these: active compound concentration of 0.1%, after 7 days; cabbage leaves dipped. As for the experimental part:
(§1) Phaedon Larvae Test [table] To produce a suitable preparation of active compound, 1 part by weight of active compound is mixed with the stated amount of solvent and the stated amount of emulsifier, and the concentrate is diluted with water to the desired concentration. Cabbage leaves (Brassica oleracea) are treated by being dipped into the preparation of the active compound of the desired concentration and are infested with mustard beetle larvae (Phaedon cochleariae) while the leaves are still moist. After the specified period of time, the destruction in % is determined. 100% means that all the beetle larvae have been killed; 0% means that none of the beetle larvae have been killed.

Experiment [2] concerns caterpillars of the owlet moth (Spodoptera frugiperda). The experiment in a line: Spodoptera test. The conditions noted are these: active compound concentration of 0.1%, after 7 days; cabbage leaves dipped. The protocol:
To produce a suitable preparation of active compound, 1 part by weight of active compound is mixed with the stated amount of solvent and the stated amount of emulsifier, an d the concentrate is diluted with water to the d esired concentration.
Cabbage leaves (Brassica oleracea) are treated by being dipped into the preparation of the active compound of the desired concentration and are infested with caterpillars of the owlet moth (Spodoptera frugiperda) as long, as the leaves are still moist.
After the specified period of time, the destruction in % is determined. 100% means that all the caterpillars have been killed; 0% means that none of the caterpiliars have been killed.

The subject of experiment [3] is larvae of the green rice leaf hopper (Nephotettix cincticeps). The experiment in a line: Nephotettix test. The conditions noted are these: active compound concentration of 0.1%, after 6 days; rice seedlings dipped. As for the experimental part: as §1, with “Nephotettix” for “Phaedon Larvae”, “Rice seedlings (Oryzae sativa)” for “Cabbage leaves (Brassica oleracea)”, “with” for “with mustard beetle”, “of the green rice leaf hopper (Nephotettix cincticeps)” for “(Phaedon cochleariae)”, “seedlings” for “leaves”, “the” for “the beetle”

For experiment [4], the system named is fruit tree spider mite (Panonychus ulmi). The experiment in a line: Panonychus test. The conditions noted are these: active compound concentration of 0.004%, after 7 days; plum trees sprayed. The protocol: Panonychus Test [table] To prepare a suitable preparation of active compound, 1 part by weight of active compound is mixed with the stated amount of solvent and the stated amount of emulsifier, and the concentrate is diluted with water to the desired concentration. Plum trees (Prunus domestica) approximately 30 cm in height which are severely infested by all stages of the fruit tree spider mite (Panonychus ulmi) are sprayed with an active compound preparation of the desired concentration. After the specified period of time, the destruction in % is determined. 100% means that all the spider mites have been killed; 0% means that none of the spider mites have been killed.

In experiment [5] the test system is caterpillars of the diamond-back moth (Plutella maculipennis). The experiment in a line: Plutella test. The conditions noted are these: active compound concentration of 0.1%, after 7 days; cabbage leaves dipped. The protocol: Plutella Test [table] To produce a suitable preparation of active compound, 1 part by weight of active compound is mixed with the stated amount of solvent and the stated amount of emulsifier, and the concentrate is diluted with water to the desired concentration. Cabbage leaves (Brassica oleracea) are treated by being dipped into the preparation of active compound of the desired concentration and are infested with caterpillars of the diamond-back moth (Plutella maculipennis) while the leaves are still moist. After the specified period of time, the destruction in % is determined. 100% means that all the caterpillars have been killed, 0% means that none of the caterpillars have been killed.

With `Cc1ccccc1C1=C(O)C2(CCC(C)CC2)NC1=O` (centres unmarked) [Example I-1-a-1], the destruction in % in experiment [1] was 100%; in experiment [2], 85%; in experiment [3], 100%.
`CC(C)(C)C(=O)OC1=C(c2ccccc2Cl)C(=O)OC12CCCCC2` [Example I-2-b-1]: in experiment [4], the “efficacy (destruction in %)” value is reported as 100%.
For `Cc1ccccc1-c1c(O)c(C)c(-c2ccccn2)oc1=O` [Example I-4-a-1], the destruction in % in experiment [1] worked out at 100%; in experiment [5], 100%; in experiment [2], 85%; in experiment [3], 100%.
